These results are taken from patent US8569344B2, “N-piperidinyl acetamide derivatives as calcium channel blockers” (Zalicus Pharmaceuticals Ltd., priority 2008, dated 2013).

For assay [1], the target named is T1, human α1G T-type channels (Homo sapiens, UniProt O43497).
T1 construct: expressed in transfected cells; host or cells: HEK 293
The assay can be described thus: T-type calcium channel block, whole cell patch clamp in HEK cells (α1G). Format: cell-based. Conditions: HEK cells, patch clamp, mainly non-inactivated protocol; values above 10 μM shown as 10 μM, below 0.30 μM shown as 0.30 μM; read-out: T-type Calcium Channel Block α1G IC50. On the technique in general: Patch clamp records ionic current or voltage across a cell membrane.

Assay [2] has as its target T2, human α1H T-type channels (Homo sapiens, UniProt O95180).
T2 construct: expressed in transfected cells; host or cells: HEK 293
Briefly: T-type calcium channel block, whole cell patch clamp in HEK cells (α1H). Format: cell-based. The following applies: HEK cells, patch clamp, mainly non-inactivated protocol; values above 10 μM shown as 10 μM; read-out: T-type Calcium Channel Block α1H IC50.

T2 sequence (O95180 whole entry): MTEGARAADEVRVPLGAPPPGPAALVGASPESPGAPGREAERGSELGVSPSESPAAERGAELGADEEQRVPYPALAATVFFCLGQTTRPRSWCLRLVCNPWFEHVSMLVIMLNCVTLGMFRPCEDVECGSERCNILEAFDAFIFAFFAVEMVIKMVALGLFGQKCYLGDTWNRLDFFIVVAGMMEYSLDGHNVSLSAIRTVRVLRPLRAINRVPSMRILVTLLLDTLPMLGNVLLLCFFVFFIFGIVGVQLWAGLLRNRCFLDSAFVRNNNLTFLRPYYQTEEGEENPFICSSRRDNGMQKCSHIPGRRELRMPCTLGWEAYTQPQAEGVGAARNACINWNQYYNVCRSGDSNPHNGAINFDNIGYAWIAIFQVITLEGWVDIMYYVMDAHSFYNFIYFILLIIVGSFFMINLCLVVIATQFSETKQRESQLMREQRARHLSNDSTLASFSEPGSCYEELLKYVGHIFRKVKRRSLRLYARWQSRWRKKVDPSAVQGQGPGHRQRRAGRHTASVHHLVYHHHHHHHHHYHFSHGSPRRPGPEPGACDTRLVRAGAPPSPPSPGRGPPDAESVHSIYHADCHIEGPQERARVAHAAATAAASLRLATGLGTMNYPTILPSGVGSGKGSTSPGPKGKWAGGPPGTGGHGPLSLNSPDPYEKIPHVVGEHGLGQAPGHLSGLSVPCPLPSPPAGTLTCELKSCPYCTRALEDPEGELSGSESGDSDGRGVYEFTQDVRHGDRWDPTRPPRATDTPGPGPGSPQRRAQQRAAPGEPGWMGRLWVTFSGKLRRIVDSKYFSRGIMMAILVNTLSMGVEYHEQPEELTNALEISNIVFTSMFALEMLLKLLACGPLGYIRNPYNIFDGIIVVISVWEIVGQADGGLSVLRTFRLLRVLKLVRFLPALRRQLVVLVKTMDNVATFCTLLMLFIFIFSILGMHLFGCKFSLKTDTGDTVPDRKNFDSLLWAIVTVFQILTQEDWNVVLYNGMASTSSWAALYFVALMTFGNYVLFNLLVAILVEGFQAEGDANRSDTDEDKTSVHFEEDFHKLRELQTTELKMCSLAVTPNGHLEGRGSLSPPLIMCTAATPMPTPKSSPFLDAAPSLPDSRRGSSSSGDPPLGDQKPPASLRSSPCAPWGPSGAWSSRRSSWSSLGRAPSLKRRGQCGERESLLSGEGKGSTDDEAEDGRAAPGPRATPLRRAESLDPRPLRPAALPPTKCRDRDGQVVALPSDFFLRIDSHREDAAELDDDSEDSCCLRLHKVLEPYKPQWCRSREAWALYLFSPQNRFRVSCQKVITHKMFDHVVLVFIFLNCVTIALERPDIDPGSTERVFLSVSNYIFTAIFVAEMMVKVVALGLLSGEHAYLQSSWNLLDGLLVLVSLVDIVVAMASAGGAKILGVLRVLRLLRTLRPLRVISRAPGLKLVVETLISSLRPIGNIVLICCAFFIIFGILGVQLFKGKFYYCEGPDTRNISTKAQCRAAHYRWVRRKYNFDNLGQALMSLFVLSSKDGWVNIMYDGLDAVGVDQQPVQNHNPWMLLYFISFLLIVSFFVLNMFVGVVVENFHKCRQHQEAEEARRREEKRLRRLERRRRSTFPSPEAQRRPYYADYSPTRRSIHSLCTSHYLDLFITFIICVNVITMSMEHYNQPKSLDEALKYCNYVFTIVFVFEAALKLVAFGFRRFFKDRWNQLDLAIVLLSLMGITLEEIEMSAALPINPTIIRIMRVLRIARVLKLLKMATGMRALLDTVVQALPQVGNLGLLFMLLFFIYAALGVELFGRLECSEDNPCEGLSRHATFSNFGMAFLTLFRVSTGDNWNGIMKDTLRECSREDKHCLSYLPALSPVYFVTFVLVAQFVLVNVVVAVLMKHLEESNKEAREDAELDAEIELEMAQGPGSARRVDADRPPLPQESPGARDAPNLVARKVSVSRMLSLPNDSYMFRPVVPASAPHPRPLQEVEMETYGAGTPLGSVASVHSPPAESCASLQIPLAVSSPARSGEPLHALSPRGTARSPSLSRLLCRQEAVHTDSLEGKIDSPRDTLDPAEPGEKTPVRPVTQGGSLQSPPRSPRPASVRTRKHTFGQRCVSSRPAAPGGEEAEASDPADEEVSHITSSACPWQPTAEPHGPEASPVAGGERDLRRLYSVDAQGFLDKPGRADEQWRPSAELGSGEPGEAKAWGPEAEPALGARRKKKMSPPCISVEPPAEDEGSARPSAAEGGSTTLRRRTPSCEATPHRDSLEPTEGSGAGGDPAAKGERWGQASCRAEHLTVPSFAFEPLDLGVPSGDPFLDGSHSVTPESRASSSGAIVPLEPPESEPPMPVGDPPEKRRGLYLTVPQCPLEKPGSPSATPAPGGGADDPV
T1 sequence (O43497 whole entry): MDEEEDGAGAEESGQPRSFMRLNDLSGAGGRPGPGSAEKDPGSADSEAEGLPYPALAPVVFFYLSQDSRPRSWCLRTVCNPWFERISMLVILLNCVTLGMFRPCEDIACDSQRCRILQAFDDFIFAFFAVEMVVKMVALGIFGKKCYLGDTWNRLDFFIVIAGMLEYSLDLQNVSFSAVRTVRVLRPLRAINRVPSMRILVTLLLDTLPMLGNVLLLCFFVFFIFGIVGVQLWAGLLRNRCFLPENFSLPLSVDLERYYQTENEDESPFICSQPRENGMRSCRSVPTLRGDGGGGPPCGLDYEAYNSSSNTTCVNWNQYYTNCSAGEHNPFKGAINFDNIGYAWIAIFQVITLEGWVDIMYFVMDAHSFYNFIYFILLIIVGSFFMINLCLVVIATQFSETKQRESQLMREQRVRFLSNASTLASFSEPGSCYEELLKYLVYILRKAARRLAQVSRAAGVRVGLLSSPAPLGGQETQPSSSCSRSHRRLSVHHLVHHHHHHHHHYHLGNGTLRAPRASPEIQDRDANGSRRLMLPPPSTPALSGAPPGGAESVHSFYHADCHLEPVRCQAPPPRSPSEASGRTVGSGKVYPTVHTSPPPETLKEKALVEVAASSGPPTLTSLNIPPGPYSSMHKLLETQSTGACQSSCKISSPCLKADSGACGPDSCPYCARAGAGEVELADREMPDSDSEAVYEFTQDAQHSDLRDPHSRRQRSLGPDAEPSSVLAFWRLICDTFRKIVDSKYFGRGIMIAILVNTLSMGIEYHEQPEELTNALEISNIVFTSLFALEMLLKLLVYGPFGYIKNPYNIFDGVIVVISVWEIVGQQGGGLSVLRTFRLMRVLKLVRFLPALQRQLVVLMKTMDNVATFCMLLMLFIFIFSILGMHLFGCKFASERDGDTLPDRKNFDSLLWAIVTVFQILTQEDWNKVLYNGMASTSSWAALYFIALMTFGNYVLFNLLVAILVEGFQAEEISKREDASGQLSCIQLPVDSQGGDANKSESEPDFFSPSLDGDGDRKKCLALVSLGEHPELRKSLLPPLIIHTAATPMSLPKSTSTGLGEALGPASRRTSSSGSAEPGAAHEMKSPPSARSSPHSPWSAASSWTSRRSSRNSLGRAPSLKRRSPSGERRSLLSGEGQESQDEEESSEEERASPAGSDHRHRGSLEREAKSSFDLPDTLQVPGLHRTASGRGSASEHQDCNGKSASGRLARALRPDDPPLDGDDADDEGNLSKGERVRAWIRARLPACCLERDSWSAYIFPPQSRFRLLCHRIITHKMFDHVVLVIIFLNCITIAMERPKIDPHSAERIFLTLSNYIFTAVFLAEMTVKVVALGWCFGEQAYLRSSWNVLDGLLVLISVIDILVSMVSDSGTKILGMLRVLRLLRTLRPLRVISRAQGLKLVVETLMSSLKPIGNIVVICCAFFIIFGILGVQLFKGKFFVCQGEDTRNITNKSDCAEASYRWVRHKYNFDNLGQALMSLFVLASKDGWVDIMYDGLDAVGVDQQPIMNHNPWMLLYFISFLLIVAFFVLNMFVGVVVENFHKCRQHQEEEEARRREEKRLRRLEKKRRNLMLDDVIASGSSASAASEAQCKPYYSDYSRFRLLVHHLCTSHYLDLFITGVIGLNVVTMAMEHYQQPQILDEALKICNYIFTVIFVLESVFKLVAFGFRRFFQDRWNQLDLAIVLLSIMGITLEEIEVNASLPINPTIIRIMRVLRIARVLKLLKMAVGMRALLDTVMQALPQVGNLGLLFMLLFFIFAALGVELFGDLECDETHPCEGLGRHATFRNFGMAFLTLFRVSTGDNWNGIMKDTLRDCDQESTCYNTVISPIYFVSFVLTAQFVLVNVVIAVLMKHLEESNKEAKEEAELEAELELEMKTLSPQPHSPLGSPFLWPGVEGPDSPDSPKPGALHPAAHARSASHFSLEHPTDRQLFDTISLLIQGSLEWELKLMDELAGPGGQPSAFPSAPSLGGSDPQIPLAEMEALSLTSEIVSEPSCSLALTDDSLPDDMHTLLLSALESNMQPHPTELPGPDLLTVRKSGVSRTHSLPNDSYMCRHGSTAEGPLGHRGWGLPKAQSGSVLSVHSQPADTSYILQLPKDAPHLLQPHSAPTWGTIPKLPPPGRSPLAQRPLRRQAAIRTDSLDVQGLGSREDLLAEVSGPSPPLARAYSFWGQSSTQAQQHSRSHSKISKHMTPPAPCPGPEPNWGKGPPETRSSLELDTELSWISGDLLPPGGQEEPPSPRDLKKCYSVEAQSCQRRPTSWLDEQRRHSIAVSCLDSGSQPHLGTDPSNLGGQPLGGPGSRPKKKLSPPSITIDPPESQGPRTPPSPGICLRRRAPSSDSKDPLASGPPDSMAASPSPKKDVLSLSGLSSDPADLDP

In general, IC50 refers to the concentration at which inhibition is half-maximal. For the molecule `COc1cc(OC)cc(C(=O)NCC2CCN(CC(=O)N3CCC[C@H]3C(F)(F)F)CC2)c1` [Compound 466, (S)-3,5-dimethoxy-N-((1-(2-oxo-2-(2-(trifluoromethyl)pyrrolidin-1-yl)ethyl)piperidin-4-yl)methyl)benzamide], the IC50 in assay [1] is below 300 nM; in assay [2], 270 nM.

For `O=C(NCC1CCN(CCNS(=O)(=O)C2CCC2)CC1)c1cc(F)cc(C(F)(F)F)c1` [Compound 306, N-((1-(2-(cyclobutanesulfonamido)ethyl)piperidin-4-yl)methyl)-3-fluoro-5-(trifluoromethyl)benzamide], the IC50 in assay [1] stood at 340 nM; in assay [2] it was 390 nM.

As to `O=C(NCC1CCN(CC(=O)N2CCC[C@@H]2C(F)(F)F)CC1)c1cccc(F)c1` [Compound 508, (R)-3-fluoro-N-((1-(2-oxo-2-(2-(trifluoromethyl)pyrrolidin-1-yl)ethyl)piperidin-4-yl)methyl) benzamide], the IC50 in assay [1] is above 10000 nM; in assay [2], 9220 nM.

On to `Cc1cc(F)cc(C(=O)NCC2CCN(CC(=O)N3CCC[C@@H]3C(F)(F)F)CC2)c1` [Compound 506, (R)-3-fluoro-5-methyl-N-((1-(2-oxo-2-(2-(trifluoromethyl)pyrrolidin-1-yl)ethyl)piperidin-4-yl)methyl) benzamide], for which the IC50 in assay [1] amounted to 5360 nM; in assay [2], 1480 nM.

For `CC(C)(C)ONC(=O)CN1CCC(CNC(=O)c2cc(C(F)(F)F)cc(C(F)(F)F)c2)CC1` [Compound 560, N-((1-(2-(tert-butoxyamino)-2-oxoethyl)piperidin-4-yl)methyl)-3,5-bis(trifluoromethyl)benzamide], the figures for the IC50 in assay [1] and in assay [2] were 470 nM and 590 nM, respectively.

Take `COCC(C)(C)NC(=O)CN1CCC(CNC(=O)c2cccc(Cl)c2)CC1` [Compound 566, 3-chloro-N-((1-(2-(1-methoxy-2-methylpropan-2-ylamino)-2-oxoethyl)piperidin-4-yl)methyl) benzamide]: the IC50 in assay [1] came out at 760 nM; in assay [2], 820 nM.

Consider `O=C(CN1CCC(CNC(=O)c2cc(F)cc(Cl)c2)CC1)NC1(C2CCOCC2)CC1` [Compound 563, 3-chloro-5-fluoro-N-((1-(2-oxo-2-(1-(tetrahydro-2H-pyran-4-yl)cyclopropylamino)ethyl)piperidin-4-yl)methyl)benzamide], for which the IC50 in assay [1] was below 300 nM; in assay [2], 310 nM.

As to `O=C(NCC1CCN(CCNS(=O)(=O)C(F)(F)F)CC1)c1ccc(OC(F)(F)F)cc1` [Compound 389, 4-(trifluoromethoxy)-N-((1-(2-(trifluoromethylsulfonamido)ethyl)piperidin-4-yl)methyl)benzamide], the IC50 in assay [1] and in assay [2] was above 10000 nM each time.

In the case of `CC(C)(C)NCC(=O)N1CCC(CNC(=O)c2cc(F)cc(C(F)(F)F)c2)CC1` [Compound 265, N-((1-(2-(tert-butylamino)acetyl)piperidin-4-yl)methyl)-3-fluoro-5-(trifluoromethyl)benzamide], the IC50 in assay [1] was determined as 2060 nM; in assay [2], 3760 nM.

`O=C(NCC1CCN(CC2(NS(=O)(=O)C3CC3)CC2)CC1)c1cc(C(F)(F)F)cc(C(F)(F)F)c1` [Compound 359, N-((1-((1-(cyclopropanesulfonamido)cyclopropyl)methyl)piperidin-4-yl)methyl)-3,5-bis(trifluoromethyl)benzamide]: the figures for the IC50 in assay [1] and in assay [2] were 380 nM and 490 nM, respectively.

`CC1CCCCC1NCC(=O)N1CCC(CNC(=O)c2cc(C(F)(F)F)cc(C(F)(F)F)c2)CC1` (stereo not shown) [Compound 248, N-((1-(2-(2-methylcyclohexylamino)acetyl)piperidin-4-yl)methyl)-3,5-bis(trifluoromethyl)benzamide]: the values for the IC50 in assay [1] and in assay [2] were below 300 nM and 480 nM, respectively.

`CC(C)(C(=O)NCCN1CCC(CNC(=O)c2cc(C(F)(F)F)cc(S(C)(=O)=O)c2)CC1)C(F)(F)F` [Compound 587, 3-(methylsulfonyl)-N-((1-(2-(3,3,3-trifluoro-2,2-dimethyl-propanamido)ethyl)piperidin-4-yl)methyl)-5-(trifluoromethyl) benzamide]: the IC50 in assay [1] is above 10000 nM; in assay [2], 3590 nM.

Turning to `Cc1cc(C)cc(C(=O)NCC2CCN(CC(=O)N3CCC[C@H]3C(F)(F)F)CC2)c1` [Compound 463, (S)-3,5-dimethyl-N-((1-(2-oxo-2-(2-(trifluoromethyl)pyrrolidin-1-yl)ethyl)piperidin-4-yl)methyl) benzamide], the IC50 in assay [1] is below 300 nM; in assay [2], 210 nM.

Regarding `CC(C)(C)NC(=O)NC1(CN2CCC(CNC(=O)c3cc(C(F)(F)F)cc(C(F)(F)F)c3)CC2)CCCC1` [Compound 12, N-((1-((1-(3-tert-butylureido)cyclopentyl)methyl)piperidin-4-yl)methyl)-3,5-bis(trifluoromethyl)benzamide], the IC50 amounted to 480 nM in assay [1] and 1660 nM in assay [2].

On to `CS(=O)(=O)c1cc(C(=O)NCC2CCN(CC(=O)NC3CCCC3)CC2)cc(C(F)(F)F)c1` [Compound 585, N-((1-(2-(cyclopentylamino)-2-oxoethyl)piperidin-4-yl)methyl)-3-(methylsulfonyl)-5-(trifluoromethyl)benzamide], for which the IC50 in assay [1] and in assay [2] was above 10000 nM each time.

Consider `COc1cc(OC)cc(C(=O)NCC2CCN(CCNS(=O)(=O)C(C)(C)C)CC2)c1` [Compound 576, N-((1-(2-(1,1-dimethyethylsulfonamido)ethyl)piperidin-4-yl)methyl)-3,5-dimethoxybenzamide], for which the IC50 in assay [1] is 430 nM; in assay [2] it was 930 nM.

For the molecule `CCCNC(=O)N(C)CCN1CCC(CNC(=O)c2cc(F)cc(C(F)(F)F)c2)CC1` [Compound 526, 3-fluoro-N-((1-(2-(1-methyl-3-propylureido)ethyl)piperidin-4-yl)methyl)-5-(trifluoromethyl)benzamide], the IC50 in assay [1] was above 10000 nM; in assay [2], 3240 nM.

`CC(C)(C)S(=O)(=O)NCCN1CCC(CNC(=O)c2cccc(Cl)c2)CC1` [Compound 573, 3-chloro-N-((1-(2-(1,1-dimethylethylsulfonamido)ethyl)piperidin-4-yl)methyl)benzamide]: the IC50 in assay [1] was found to be 1270 nM; in assay [2], 1010 nM.

On to `O=C(/C=C/c1cc(F)cc(F)c1)NCC1CCN(CCNC(=O)CCC(F)(F)F)CC1` [Compound 314, (E)-N-(2-(4-((3-(3,5-difluorophenyl)acrylamido)methyl)piperidin-1-yl)ethyl)-4,4,4-trifluorobutanamide], for which the IC50 was above 10000 nM in assay [1] and 9240 nM in assay [2].

Consider `COCC(C)(C)NC(=O)C(C)N1CCC(CNC(=O)c2cc(F)cc(Cl)c2)CC1` (stereo not shown) [Compound 551, 3-chloro-5-fluoro-N-((1-(1-(1-methoxy-2-methylpropan-2-ylamino)-1-oxopropan-2-yl)piperidin-4-yl)methyl)benzamide], for which the IC50 in assay [1] was found to be 370 nM; in assay [2], 140 nM.

As for `CCCNC(=O)CN1CCC(CNC(=O)c2cc(F)cc(C(F)(F)F)c2)CC1` [Compound 351, 3-fluoro-N-((1-(2-oxo-2-(propylamino)ethyl)piperidin-4-yl)methyl)-5-(trifluoromethyl)benzamide], the figures for the IC50 in assay [1] and in assay [2] were 1720 nM and 1300 nM, respectively.

Consider `O=C(NCC1CCN(C(=O)CN2CCCC(F)(F)C2)CC1)c1cc(C(F)(F)F)cc(C(F)(F)F)c1` [Compound 256, N-((1-(2-(3,3-difluoropiperidin-1-yl)acetyl)piperidin-4-yl)methyl)-3,5-bis(trifluoromethyl)benzamide], for which the IC50 is 5570 nM in assay [1] and above 10000 nM in assay [2].

As for `O=C(CN1CCC(CNC(=O)c2cc(F)cc(C(F)(F)F)c2)CC1)NC1(C2CCOCC2)CC1` [Compound 561, 3-fluoro-N-((1-(2-oxo-2-(1-(tetrahydro-2H-pyran-4-yl)cyclopropylamino)ethyl)piperidin-4-yl)methyl)-5-(trifluoromethyl) benzamide], the IC50 was below 300 nM in assay [1] and 270 nM in assay [2].

Regarding `CCCNC(=O)CN1CCC(CNC(=O)c2cc(OC)cc(OC)c2)CC1` [Compound 448, 3,5-dimethoxy-N-((1-(2-oxo-2-(propylamino)ethyl)piperidin-4-yl)methyl)benzamide], the IC50 amounted to 9730 nM in assay [1] and 4640 nM in assay [2].

Turning to `CC(C)(C)C1CCN(CC(=O)N2CCC(CNC(=O)c3cc(C(F)(F)F)cc(C(F)(F)F)c3)CC2)CC1` [Compound 258, N-((1-(2-(4-tert-butylpiperidin-1-yl)acetyl)piperidin-4-yl)methyl)-3,5-bis(trifluoromethyl)benzamide], the IC50 in assay [1] turned out to be 1180 nM; in assay [2], 3240 nM.

Turning to `O=C(NCC1CCN(CC(=O)N2CCC(F)CC2)CC1)c1cc(C(F)(F)F)cc(C(F)(F)F)c1` [Compound 349, N-((1-(2-(4-fluoropiperidin-1-yl)-2-oxoethyl)piperidin-4-yl)methyl)-3,5-bis(trifluoromethyl)benzamide], the IC50 was below 300 nM in assay [1] and 300 nM in assay [2].

`COc1cc(OC)cc(C(=O)NCC2CCN(CC(=O)NC(C)C)CC2)c1` [Compound 439, N-((1-(2-(isopropylamino)-2-oxoethyl)piperidin-4-yl)methyl)-3,5-dimethoxybenzamide]: the IC50 in assay [1] came out at 3280 nM; in assay [2], 2170 nM.

For `Cc1cc(C)cc(C(=O)NCC2CCN(CC(=O)NC(C)(C)C(F)(F)F)CC2)c1` [Compound 454, 3,5-dimethyl-N-((1-(2-oxo-2-(1,1,1-trifluoro-2-methylpropan-2-ylamino)ethyl)piperidin-4-yl)methyl)benzamide], the IC50 in assay [1] is below 300 nM; in assay [2] it was 40 nM.

As to `CC(C)(C)N/C(CN1CCC(CNC(=O)c2cc(C(F)(F)F)cc(C(F)(F)F)c2)CC1)=N\C#N` [Compound 503, (Z)-N-((1-(2-(tert-buylamino)-2-(cyanoimino)ethyl)piperidin-4-yl)methyl)-3,5-bis(trifluoromethyl) benzamide], the IC50 in assay [1] amounted to 1550 nM; in assay [2], 7200 nM.
